Here are results for 58 compounds from ChEMBL document CHEMBL1156685, “Synthesis and structure-activity relationships of N-6 substituted analogues of 9-hydroxy-4-phenylpyrrolo[3,4-c]carbazole-1,3(2H,6H)-diones as inhibitors of Wee1 and Chk1 checkpoint kinases” (Eur J Med Chem, 2008).

In data set [1] the target is Proto-oncogene tyrosine-protein kinase Src (Homo sapiens, UniProt P12931).
Data set [2] has as its target Cyclin-dependent kinase 1/cyclin B1 (Homo sapiens, UniProt P06493). In kind it is cell-based, HT-29.
Description: Inhibition of Cdc2/cyclin B assessed as inhibition of histone H1 phosphorylation in human HT29 cells
A short description of data set [3]: physchem. The following applies: buffer.
Description: Aqueous solubility of the compound
The target of data set [4] is Wee1-like protein kinase (Homo sapiens, UniProt P30291).
Sequence of Wee1-like protein kinase (P30291 whole entry): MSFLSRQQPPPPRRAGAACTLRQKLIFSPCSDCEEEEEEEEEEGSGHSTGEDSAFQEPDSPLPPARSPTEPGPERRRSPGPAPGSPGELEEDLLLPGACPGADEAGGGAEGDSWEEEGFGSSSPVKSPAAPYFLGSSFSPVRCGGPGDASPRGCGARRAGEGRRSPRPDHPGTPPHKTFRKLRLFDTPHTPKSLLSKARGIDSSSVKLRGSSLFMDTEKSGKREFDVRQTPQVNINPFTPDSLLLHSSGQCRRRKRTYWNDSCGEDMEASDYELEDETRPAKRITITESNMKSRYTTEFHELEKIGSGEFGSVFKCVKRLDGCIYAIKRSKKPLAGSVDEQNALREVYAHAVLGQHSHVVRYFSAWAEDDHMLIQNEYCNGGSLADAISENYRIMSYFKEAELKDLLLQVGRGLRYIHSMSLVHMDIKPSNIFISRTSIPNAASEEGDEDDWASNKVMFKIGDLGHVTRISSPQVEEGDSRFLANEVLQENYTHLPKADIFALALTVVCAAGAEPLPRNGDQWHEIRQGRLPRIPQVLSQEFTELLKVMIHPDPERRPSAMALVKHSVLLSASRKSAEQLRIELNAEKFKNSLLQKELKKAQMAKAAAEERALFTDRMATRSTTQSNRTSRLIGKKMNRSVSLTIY
Description: Inhibition of human Wee1 assessed as polyornithine-tyrosine copolymer phosphorylation
The target of data set [5] is Cyclin-dependent kinase 1 (Homo sapiens, UniProt P06493). Type of data set: cell-based. Conditions: ht-29.
Sequence of Cyclin-dependent kinase 1 (P06493 whole entry): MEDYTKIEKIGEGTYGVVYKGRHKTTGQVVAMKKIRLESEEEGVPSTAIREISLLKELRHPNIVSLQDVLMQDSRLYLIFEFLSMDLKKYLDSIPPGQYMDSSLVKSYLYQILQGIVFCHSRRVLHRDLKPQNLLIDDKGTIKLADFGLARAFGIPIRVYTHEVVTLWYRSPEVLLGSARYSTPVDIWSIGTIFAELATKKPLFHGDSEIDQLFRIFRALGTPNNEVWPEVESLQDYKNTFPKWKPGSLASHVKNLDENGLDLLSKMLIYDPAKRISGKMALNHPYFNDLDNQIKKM
Description: Inhibition of Cdc2 Tyr15 phosphorylation in human HT29 cells by Western blot

In brackets after ≈: the same amount, converted by molar mass. Bounds are passed on as bounds.

Sequence of Cyclin-dependent kinase 1/cyclin B1 (P06493 whole entry): as above
Sequence of Cyclin-dependent kinase 1/cyclin B1 (P14635 whole entry, further chain): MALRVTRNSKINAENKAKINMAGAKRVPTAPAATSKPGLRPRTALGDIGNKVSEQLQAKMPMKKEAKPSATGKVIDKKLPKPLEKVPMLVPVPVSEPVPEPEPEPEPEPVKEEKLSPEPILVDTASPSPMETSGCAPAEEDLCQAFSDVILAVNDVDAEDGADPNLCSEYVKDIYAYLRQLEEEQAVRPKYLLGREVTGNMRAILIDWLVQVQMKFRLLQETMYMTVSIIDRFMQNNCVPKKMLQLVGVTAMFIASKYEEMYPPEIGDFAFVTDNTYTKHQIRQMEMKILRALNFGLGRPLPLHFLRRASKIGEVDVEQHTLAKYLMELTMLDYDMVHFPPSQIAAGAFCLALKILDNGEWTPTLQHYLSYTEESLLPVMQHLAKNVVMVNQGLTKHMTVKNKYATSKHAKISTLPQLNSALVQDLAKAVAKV
Sequence of Proto-oncogene tyrosine-protein kinase Src (P12931 2-536 limits assumed): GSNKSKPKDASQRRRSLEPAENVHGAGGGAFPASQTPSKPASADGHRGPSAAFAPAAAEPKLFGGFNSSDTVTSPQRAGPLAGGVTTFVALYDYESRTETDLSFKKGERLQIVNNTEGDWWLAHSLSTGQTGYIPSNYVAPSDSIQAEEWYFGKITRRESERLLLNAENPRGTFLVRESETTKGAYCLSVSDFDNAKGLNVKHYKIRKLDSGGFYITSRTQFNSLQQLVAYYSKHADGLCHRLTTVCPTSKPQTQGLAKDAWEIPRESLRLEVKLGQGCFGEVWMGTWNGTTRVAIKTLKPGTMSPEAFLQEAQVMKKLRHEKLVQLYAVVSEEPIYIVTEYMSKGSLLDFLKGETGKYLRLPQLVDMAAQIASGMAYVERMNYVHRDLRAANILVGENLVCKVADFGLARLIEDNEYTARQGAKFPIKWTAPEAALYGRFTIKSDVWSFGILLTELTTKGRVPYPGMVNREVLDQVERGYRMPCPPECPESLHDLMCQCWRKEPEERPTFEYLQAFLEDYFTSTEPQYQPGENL

Take `O=C1NC(=O)c2c1c(-c1ccccc1Cl)cc1[nH]c3ccc(O)cc3c21`: the IC50 (usually the concentration at which inhibition is half-maximal) in data set [1] was > 50000 nM.
In data set [2], `O=C1NC(=O)c2c1c(-c1ccccc1Cl)cc1c2c2cc(O)ccc2n1CCCO` showed an IC50 of 650 nM. The solubility (as a rule, how much of the substance goes into solution per volume) in data set [3] was < 3 µg/mL.
In data set [4], `CN1CCN(CCCn2c3ccc(O)cc3c3c4c(c(-c5c(Cl)cccc5Cl)cc32)C(=O)NC4=O)CC1` returned an IC50 of 62 nM.
Still for that read-out and setting: then `O=C1NC(=O)c2c1c(-c1ccccc1)cc1c2c2cc(O)ccc2n1CCCNc1ccccc1`, with 93 nM.
Turning to `CNCCCn1c2ccc(O)cc2c2c3c(c(-c4c(Cl)cccc4Cl)cc21)C(=O)NC3=O`, in data set [4], the IC50 is 110 nM. The solubility in data set [3] was 7.3 µg/mL (≈ 15.6 µM).
In turn, `O=C1NC(=O)c2c1c(-c1c(Cl)cccc1Cl)cc1c2c2cc(O)ccc2n1CCCn1ccnc1` showed an IC50 in data set [4] of 59 nM. In addition, in data set [3], the concentration in solution (solubility) was 3.2 µg/mL (≈ 6.33 µM).
As for `CN1CCN(CCCn2c3ccc(O)cc3c3c4c(c(-c5ccccc5)cc32)C(=O)NC4=O)CC1`, the IC50 is 17000 nM in data set [1] and 300 nM in data set [4]. In data set [3], this compound registered a solubility of 28 µg/mL (≈ 59.8 µM).
`CN(C)CCCn1c2ccc(O)cc2c2c3c(c(-c4ccccc4Cl)cc21)C(=O)NC3=O` yielded an IC50 in data set [4] of 100 nM.
The same measure, in the same setting: then `CNCCCn1c2ccc(O)cc2c2c3c(c(-c4ccccc4)cc21)C(=O)NC3=O`, with 280 nM.
In the case of `O=C(O)CCn1c2ccc(O)cc2c2c3c(c(-c4ccccc4Cl)cc21)C(=O)NC3=O`, the solubility in data set [3] was > 60 µg/mL.
For `O=C1NC(=O)c2c1c(-c1ccccc1Cl)cc1c2c2cc(O)ccc2n1CCCNc1ccccc1`, the midpoint of inhibition in data set [4], the IC50, lay at 74 nM. That is a double-digit nanomolar value.
`O=C(O)CCn1c2ccc(O)cc2c2c3c(c(-c4c(Cl)cccc4Cl)cc21)C(=O)NC3=O` gave an IC50 in data set [4] of 390 nM. This compound returned a solubility in data set [3] of 33 µg/mL (≈ 70.3 µM).
For `CS(=O)(=O)NC(=O)CCn1c2ccc(O)cc2c2c3c(c(-c4ccccc4Cl)cc21)C(=O)NC3=O`, the values for the IC50 in data set [5], in data set [2] and in data set [4] were 250 nM, > 3400 nM and 12 nM, respectively. In addition, the solubility in data set [3] is > 60 µg/mL.
In data set [4], `CN(C)CCNC(=O)CCn1c2ccc(O)cc2c2c3c(c(-c4c(Cl)cccc4Cl)cc21)C(=O)NC3=O` yielded an IC50 of 14 nM. In data set [3], the solubility is > 60 µg/mL.
`O=C1NC(=O)c2c1c(-c1c(Cl)cccc1Cl)cc1c2c2cc(O)ccc2n1CCCNc1ccccc1` gave an IC50 in data set [4] of 67 nM.
As to `CN(C)CCNC(=O)CCn1c2ccc(O)cc2c2c3c(c(-c4ccccc4Cl)cc21)C(=O)NC3=O`, the IC50 in data set [5] is < 250 nM; in data set [2], 1300 nM; in data set [4], 35 nM. Also, the solubility in data set [3] is > 60 µg/mL.
In data set [1], `O=C(O)CCn1c2ccc(O)cc2c2c3c(c(-c4ccccc4)cc21)C(=O)NC3=O` displayed a concentration for half-maximal inhibition (IC50) of 13000 nM. In data set [3], the solubility is > 60 µg/mL.
For `NC(=O)CCn1c2ccc(O)cc2c2c3c(c(-c4c(Cl)cccc4Cl)cc21)C(=O)NC3=O`, it took 330 nM to reach half-maximal inhibition in data set [4] (IC50). For the same compound, in data set [3], the solubility was < 3 µg/mL.
In the same order, the values of `O=C1NC(=O)c2c1c(-c1ccccc1)cc1c2c2cc(O)ccc2n1CCCO` are 200 nM and < 3 µg/mL.
In data set [4], `O=C1NC(=O)c2c1c(-c1ccccc1)cc1c2c2cc(O)ccc2n1CCO` gave an IC50 of 25 nM. In other words, the double-digit nanomolar range.
Regarding `O=C1NC(=O)c2c1c(-c1c(Cl)cccc1Cl)cc1c2c2cc(O)ccc2n1CCO`, the solubility in data set [3] is < 3 µg/mL.
For the compound `O=C1NC(=O)c2c1c(-c1c(Cl)cccc1Cl)cc1c2c2cc(O)ccc2n1CCCO`, in data set [4], the IC50 worked out at 7 nM. Also, the solubility in data set [3] is < 3 µg/mL.
On to `O=C1NC(=O)c2c1c(-c1ccccc1Cl)cc1c2c2cc(O)ccc2n1CCCc1nnn[nH]1`, for which the IC50 is > 10000 nM in data set [5], > 3400 nM in data set [2] and 16 nM in data set [4]. In addition, the solubility in data set [3] is > 60 µg/mL.
In data set [4], `O=C1NC(=O)c2c1c(-c1ccccc1Cl)cc1c2c2cc(O)ccc2n1CC[S+]([O-])c1nnc[nH]1` (configuration not stated) yielded an IC50 of 9 nM. Moreover, the solubility in data set [3] came to 18 µg/mL (≈ 35.6 µM).
In the same order, the values of `O=C1NC(=O)c2c1c(-c1ccccc1Cl)cc1c2c2cc(O)ccc2n1CCS(=O)(=O)c1nnc[nH]1` are 19 nM and 16 µg/mL (≈ 30.7 µM).
As to `NC(=O)CCn1c2ccc(O)cc2c2c3c(c(-c4ccccc4Cl)cc21)C(=O)NC3=O`, the IC50 was > 10000 nM in data set [5], > 3400 nM in data set [2] and 6 nM in data set [4].
For `O=C1NC(=O)c2c1c(-c1ccccc1Cl)cc1c2c2cc(O)ccc2n1CCCn1ccnc1`, 54 nM corresponded to half-maximal inhibition in data set [4] (IC50).
On the same count and under the same terms, then `O=C1NC(=O)c2c1c(-c1c(Cl)cccc1Cl)cc1c2c2cc(O)ccc2n1CCCN1CCOCC1`, with 64 nM.
In data set [4], `CN(C)CCn1c2ccc(O)cc2c2c3c(c(-c4ccccc4Cl)cc21)C(=O)NC3=O` yielded an IC50 of 96 nM. Besides, the concentration in solution in data set [3] (solubility) was 8.5 µg/mL (≈ 19.6 µM).
In data set [4], `CN(C)CCn1c2ccc(O)cc2c2c3c(c(-c4c(Cl)cccc4Cl)cc21)C(=O)NC3=O` displayed an IC50 of 170 nM. This compound also gave a solubility in data set [3] of 7.4 µg/mL (≈ 15.8 µM).
For `COC(=O)CCn1c2ccc(O)cc2c2c3c(c(-c4ccccc4Cl)cc21)C(=O)NC3=O`, in data set [4], the IC50 amounted to 30 nM. Besides, the solubility in data set [3] is < 3 µg/mL.
For `COCCCn1c2ccc(O)cc2c2c3c(c(-c4ccccc4Cl)cc21)C(=O)NC3=O` the same measures were 27 nM and < 3 µg/mL.
The compound `O=C1NC(=O)c2c1c(-c1ccccc1)cc1c2c2cc(O)ccc2n1CCn1ccnc1` had an IC50 in data set [1] of 27000 nM.
In data set [4], `O=C1NC(=O)c2c1c(-c1c(Cl)cccc1Cl)cc1c2c2cc(O)ccc2n1CCn1ccnc1` showed an IC50 of 120 nM. In data set [3], the solubility was < 3 µg/mL.
In turn, `CN1CCN(CCCn2c3ccc(O)cc3c3c4c(c(-c5ccccc5Cl)cc32)C(=O)NC4=O)CC1` came in with a half-maximal inhibitory concentration (IC50) in data set [4] of 82 nM.
`CN(C)CCCn1c2ccc(O)cc2c2c3c(c(-c4ccccc4)cc21)C(=O)NC3=O`: the IC50 stood at 5600 nM in data set [1] and 360 nM in data set [4].
`CN(C)CCCn1c2ccc(O)cc2c2c3c(c(-c4c(Cl)cccc4Cl)cc21)C(=O)NC3=O` displayed an IC50 in data set [4] of 140 nM. This lies in the sub-micromolar range.
`CNCCCn1c2ccc(O)cc2c2c3c(c(-c4ccccc4Cl)cc21)C(=O)NC3=O`: the values for the IC50 in data set [5], in data set [2] and in data set [4] were < 250 nM, 710 nM and 69 nM, respectively. In addition, the concentration in solution in data set [3] (solubility) came to 5.2 µg/mL (≈ 12 µM).
Consider `O=C1NC(=O)c2c1c(-c1ccccc1)cc1c2c2cc(O)ccc2n1CCCN1CCOCC1`, for which the IC50 was 46000 nM in data set [1] and 290 nM in data set [4]. In addition, the solubility in data set [3] was < 3 µg/mL.
Regarding `N#CCCn1c2ccc(O)cc2c2c3c(c(-c4ccccc4Cl)cc21)C(=O)NC3=O`, the IC50 was < 250 nM in data set [5], > 3400 nM in data set [2] and 15 nM in data set [4]. Moreover, the solubility in data set [3] is < 3 µg/mL.
In turn, `O=C1NC(=O)c2c1c(-c1ccccc1Cl)cc1c2c2cc(O)ccc2n1CCO` registered an IC50 in data set [4] of 45 nM. The solubility in data set [3] is < 3 µg/mL.
On to `O=C(O)CCCn1c2ccc(O)cc2c2c3c(c(-c4ccccc4Cl)cc21)C(=O)NC3=O`, for which the IC50 in data set [5] is > 10000 nM; in data set [2] it was > 3400 nM; in data set [4], 13 nM.
In data set [4], `NC(=O)CCn1c2ccc(O)cc2c2c3c(c(-c4ccccc4)cc21)C(=O)NC3=O` came in with an IC50 of 21 nM. In addition, the solubility in data set [3] is < 3 µg/mL.
Take `COc1ccccc1-c1cc2c(c3c1C(=O)NC3=O)c1cc(O)ccc1n2CCCO`: the solubility in data set [3] was < 3 µg/mL.
Consider `O=C1NC(=O)c2c1c(-c1ccccc1Cl)cc1c2c2cc(O)ccc2n1CCc1nnn[nH]1`, for which the IC50 in data set [5] is 2500 nM; in data set [2], > 3400 nM; in data set [4] it was 21 nM. In addition, the solubility in data set [3] was > 60 µg/mL.
The compound `O=C1NC(=O)c2c1c(-c1ccccc1Cl)cc1c2c2cc(O)ccc2n1CCSc1nnc[nH]1` showed an IC50 in data set [4] of 24 nM. The same compound gave a solubility in data set [3] of 3 µg/mL (≈ 6.12 µM).
For `O=C(CCn1c2ccc(O)cc2c2c3c(c(-c4ccccc4Cl)cc21)C(=O)NC3=O)NS(=O)(=O)c1ccccc1` the same measures were 7 nM and 47 µg/mL (≈ 81.9 µM).
Compound `CNCC(O)Cn1c2ccc(O)cc2c2c3c(c(-c4ccccc4Cl)cc21)C(=O)NC3=O` (configuration not stated) came in with an IC50 in data set [4] of 57 nM.
As for `CN(C)CC(O)Cn1c2ccc(O)cc2c2c3c(c(-c4ccccc4Cl)cc21)C(=O)NC3=O` (configuration not stated), the results for the IC50 in data set [5], in data set [2] and in data set [4] were 250 nM, > 3400 nM and 58 nM, respectively. In addition, in data set [3], the solubility was > 60 µg/mL.
As to `CN(C)CCNC(=O)CCn1c2ccc(O)cc2c2c3c(c(-c4ccccc4)cc21)C(=O)NC3=O`, the solubility in data set [3] was > 60 µg/mL.
With `O=C1NC(=O)c2c1c(-c1ccccc1)cc1c2c2cc(O)ccc2n1CCCn1ccnc1`, in data set [4], half-maximal inhibition (IC50) was put at 110 nM. In data set [3], the solubility was < 3 µg/mL.
Take `CN(C)CCn1c2ccc(O)cc2c2c3c(c(-c4ccccc4)cc21)C(=O)NC3=O`: the IC50 was found to be 31000 nM in data set [1] and 200 nM in data set [4]. In addition, in data set [3], the solubility worked out at 18 µg/mL (≈ 45.1 µM).
Turning to `O=C1NC(=O)c2c1c(-c1c(Cl)cccc1Cl)cc1c2c2cc(O)ccc2n1CCN1CCOCC1`, in data set [4], half-maximal inhibition (IC50) was put at 110 nM.
On the same count and under the same terms, then `N#CCCCn1c2ccc(O)cc2c2c3c(c(-c4ccccc4Cl)cc21)C(=O)NC3=O`, with 33 nM.
On to `O=C1NC(=O)c2c1c(-c1ccccc1Cl)cc1c2c2cc(O)ccc2n1CC(O)CO` (configuration not stated), for which the results for the IC50 in data set [1] and in data set [4] were 2500 nM and 23 nM, respectively. This compound also came in with a solubility in data set [3] of 12 µg/mL (≈ 27.5 µM).
`O=C1NC(=O)c2c1c(-c1ccccc1)cc1c2c2cc(O)ccc2n1CCN1CCOCC1`: the IC50 in data set [4] came out at 140 nM. The same compound registered a solubility in data set [3] of 14 µg/mL (≈ 31.7 µM).
Consider `O=C1NC(=O)c2c1c(-c1ccccc1Cl)cc1c2c2cc(O)ccc2n1CCN1CCOCC1`, for which the 50% inhibitory concentration (IC50) worked out at 250 nM in data set [5], 1700 nM in data set [2] and 64 nM in data set [4]. Further, in data set [3], the solubility is < 3 µg/mL.
Compound `O=C1NC(=O)c2c1c(-c1ccccc1Cl)cc1c2c2cc(O)ccc2n1CCn1ccnc1` yielded an IC50 in data set [4] of 92 nM.
